In ChEMBL document CHEMBL1201862, “PubChem BioAssay data set” (2004):
Activity calls are given as the source filed them.

Tests used:
[1] = NIH:OVCAR-3 ovarian cancer cell cytotoxicity, dose response, PAX8 inhibitor project, plate reader, dry powder samples (AID 743044); type: functional, cell-based
[2] = P. falciparum Dd2 growth inhibitors, dose response, SYBR Green, cherry-picked samples (AID 1159567); type: functional, cell-based
[3] = IGROV1 ovarian cancer cell cytotoxicity, dose response, PAX8 inhibitor project, plate reader, dry powder samples (AID 743043); type: functional, cell-based; settings: IGROV-1
[4] = target: Paired box protein Pax-8 (Homo sapiens, UniProt Q06710); experiment: inhibitors of PAX8-driven TPO luciferase reporter, dose response, RMG-I cells, cherry-pick (AID 687027); type: functional, cell-based;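 note: luciferase reporter driven by Pax8 target thyroperoxidase promoter measured by SteadyGlo luminescence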
Chain of Paired box protein Pax-8 (Q06710 whole entry): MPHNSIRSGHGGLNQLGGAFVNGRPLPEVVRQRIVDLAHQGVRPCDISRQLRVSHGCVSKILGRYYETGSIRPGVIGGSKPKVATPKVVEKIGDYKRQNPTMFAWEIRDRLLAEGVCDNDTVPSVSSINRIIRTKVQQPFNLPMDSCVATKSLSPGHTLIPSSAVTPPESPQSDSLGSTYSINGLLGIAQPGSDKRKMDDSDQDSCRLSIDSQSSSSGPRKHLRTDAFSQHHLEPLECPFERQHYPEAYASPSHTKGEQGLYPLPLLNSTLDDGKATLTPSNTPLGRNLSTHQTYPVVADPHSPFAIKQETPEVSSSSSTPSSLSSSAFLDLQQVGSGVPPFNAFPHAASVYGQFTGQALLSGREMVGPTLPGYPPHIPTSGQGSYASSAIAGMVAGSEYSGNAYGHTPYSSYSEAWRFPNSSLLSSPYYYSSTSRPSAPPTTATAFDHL

[5] = IOSE-T80 ovarian epithelial cell cytotoxicity, dose response, cytotoxicity control for PAX8 inhibitor project, plate reader, dry powder samples (AID 743045); type: functional, cell-based
[6] = non-specific cell cytotoxicity, dose response, cytotoxicity control for PAX8 inhibitor project, plate reader, dry powder samples (AID 743021); type: functional, cell-based
[7] = A2780 ovarian cancer cell cytotoxicity, dose response, cytotoxicity control, plate reader, dry powder samples (AID 743046); type: functional, cell-based
[8] = HepG2 cell cytotoxicity, dose response, cytotoxicity control, cherry-picked samples (AID 1159577); type: functional, cell-based
[9] = cytotoxicity in OVCAR8 ovarian cancer cells, dose response, PAX8 project, cell-based, plate reader, dry powder samples (AID 743197); type: functional; settings: OVCAR-8
[10] = system: HeLa; experiment: HeLa cell cytotoxicity, dose response, cytotoxicity control, ATP luminescence, cherry-pick samples (AID 687004); type: functional, cell-based; settings: Homo sapiens
[11] = PAX2 cell-based inhibition, dose response, selectivity assay for PAX8 inhibitor project, plate reader, dry powder samples (AID 743048); type: functional;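 note: HEK293 cells carrying a WT1 promoter luciferase reporter driven by expressed Pax2; potency is for inhibition of Pax2 driven reporter signal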
[12] = PAX5 activity inhibitors, dose response, selectivity assay for PAX8 inhibitor project, cell-based, plate reader, dry powder samples (AID 743047); type: functional;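 note: HEK293 cells carrying a Pax5 driven CD19 promoter luciferase reporter; potency of inhibitors that lower reporter luminescence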
[13] = cytotoxicity dependent on PAX8, dose response, cell-based, plate reader, dry powder (AID 743049); type: functional
[14] = cytotoxicity in COV362 ovarian cancer cells, dose response, cytotoxicity control for PAX8 inhibitor project, cell-based, plate reader, dry powder, SA12 (AID 743144); type: functional
[15] = cytotoxicity in COV434 cells, dose response, cytotoxicity control for PAX8 inhibitor project, cell-based, plate reader, dry powder, SA7 (AID 743145); type: functional
[16] = cytotoxicity in OV-90 ovarian cancer cells, dose response, PAX8 inhibitor project, cell-based, plate reader, dry powder, SA8 (AID 743149); type: functional
[17] = target: Mu-type opioid receptor (Homo sapiens, UniProt P35372); experiment: Late-stage results from the probe development effort to identify antagonists of OPRK1: luminescence-based cell-based dose response OPRM1 counterscreen.; type: functional
Chain of Mu-type opioid receptor (P35372 whole entry): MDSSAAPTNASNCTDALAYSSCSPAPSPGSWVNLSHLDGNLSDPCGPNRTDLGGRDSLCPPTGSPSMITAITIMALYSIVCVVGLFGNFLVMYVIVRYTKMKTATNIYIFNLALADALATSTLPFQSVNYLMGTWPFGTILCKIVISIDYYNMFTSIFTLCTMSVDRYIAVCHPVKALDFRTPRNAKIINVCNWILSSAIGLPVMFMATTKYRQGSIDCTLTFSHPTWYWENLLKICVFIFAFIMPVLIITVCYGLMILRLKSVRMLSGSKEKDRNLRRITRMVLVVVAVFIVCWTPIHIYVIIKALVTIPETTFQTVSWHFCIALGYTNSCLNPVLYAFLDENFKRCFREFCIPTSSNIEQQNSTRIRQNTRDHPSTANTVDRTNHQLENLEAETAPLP

[18] = target: Delta-type opioid receptor (Homo sapiens, UniProt P41143); experiment: Late-stage results from the probe development effort to identify antagonists of OPRK1: fluorescence-based cell-based dose response OPRD1 counterscreen.; type: functional
Chain of Delta-type opioid receptor (P41143 whole entry): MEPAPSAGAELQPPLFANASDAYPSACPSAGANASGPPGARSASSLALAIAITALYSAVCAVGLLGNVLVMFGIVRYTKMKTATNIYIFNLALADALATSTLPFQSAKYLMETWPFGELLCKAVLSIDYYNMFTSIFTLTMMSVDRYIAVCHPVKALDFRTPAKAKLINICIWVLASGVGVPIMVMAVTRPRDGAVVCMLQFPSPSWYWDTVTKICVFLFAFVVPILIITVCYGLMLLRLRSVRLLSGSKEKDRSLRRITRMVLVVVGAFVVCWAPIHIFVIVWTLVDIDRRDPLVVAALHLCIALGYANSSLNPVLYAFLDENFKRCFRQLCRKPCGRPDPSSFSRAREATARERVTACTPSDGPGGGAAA

[19] = miR-122 activators in hepatoma reporter cells, dose response, cell-based, Huh7 psiCHECK-miR122, Renilla luciferase, cherry-picked (AID 651956); type: functional;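 note: huh7 hepatoma cells stably carrying a psiCHECK-2 miR-122 sensor plasmid; renilla luciferase signal reporting endogenous miR-122 activity after 48 h compound exposure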
[20] = system: INS1; experiment: beta cell apoptosis inhibitors, cytokine rescue, dose response, luminescence, retest (AID 449756); type: functional, cell-based; settings: Rattus norvegicus;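 note: cell death triggered by IL-1 beta plus TNF-alpha plus IFN-gamma mixture; protective hits raise ATP signal compared with cytokine alone wells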
[21] = HEK293T cytotoxicity, dose response, cytotoxicity control for miR-122 modulator project, cell-based, activator set, cherry-pick (AID 720690); type: functional;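 note: HEK293T human cells scored for general mammalian cytotoxicity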
[22] = target: T1, DNA repair and recombination protein RAD54-like (Homo sapiens, UniProt Q92698); experiment: inhibitors of human RAD54 branch migration, confirmation, biochemical, fluorescence, cherry-picked samples, dose series (AID 651657); type: functional
T1 sequence (Q92698 whole entry): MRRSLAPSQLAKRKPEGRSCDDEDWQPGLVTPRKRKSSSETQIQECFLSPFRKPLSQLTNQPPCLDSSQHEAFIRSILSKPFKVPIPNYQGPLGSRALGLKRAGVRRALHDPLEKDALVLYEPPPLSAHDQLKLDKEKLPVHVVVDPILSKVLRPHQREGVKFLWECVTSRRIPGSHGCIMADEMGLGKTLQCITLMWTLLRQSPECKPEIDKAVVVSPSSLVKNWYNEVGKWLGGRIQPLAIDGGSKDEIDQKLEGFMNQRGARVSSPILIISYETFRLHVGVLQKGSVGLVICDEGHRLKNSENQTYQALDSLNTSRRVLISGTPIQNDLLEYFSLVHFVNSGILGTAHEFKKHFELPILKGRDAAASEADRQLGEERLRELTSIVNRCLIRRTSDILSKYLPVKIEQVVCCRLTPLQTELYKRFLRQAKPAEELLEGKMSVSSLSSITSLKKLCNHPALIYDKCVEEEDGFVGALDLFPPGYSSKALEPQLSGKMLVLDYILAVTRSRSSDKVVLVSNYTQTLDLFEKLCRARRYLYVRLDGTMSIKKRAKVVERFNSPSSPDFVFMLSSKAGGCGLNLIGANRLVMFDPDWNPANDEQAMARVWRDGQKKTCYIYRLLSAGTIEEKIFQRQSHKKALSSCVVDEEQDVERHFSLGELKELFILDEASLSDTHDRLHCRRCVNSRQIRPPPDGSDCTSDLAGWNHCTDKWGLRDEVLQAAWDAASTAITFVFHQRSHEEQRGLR

[23] = target: Estrogen receptor beta (Homo sapiens, UniProt Q92731); experiment: ERβ–SRC-3 coactivator interaction inhibitors, confirmation, orthogonal assay, biochemical, ELISA, streptavidin-HRP readout (AID 1060)
Chain of Estrogen receptor beta (Q92731 whole entry): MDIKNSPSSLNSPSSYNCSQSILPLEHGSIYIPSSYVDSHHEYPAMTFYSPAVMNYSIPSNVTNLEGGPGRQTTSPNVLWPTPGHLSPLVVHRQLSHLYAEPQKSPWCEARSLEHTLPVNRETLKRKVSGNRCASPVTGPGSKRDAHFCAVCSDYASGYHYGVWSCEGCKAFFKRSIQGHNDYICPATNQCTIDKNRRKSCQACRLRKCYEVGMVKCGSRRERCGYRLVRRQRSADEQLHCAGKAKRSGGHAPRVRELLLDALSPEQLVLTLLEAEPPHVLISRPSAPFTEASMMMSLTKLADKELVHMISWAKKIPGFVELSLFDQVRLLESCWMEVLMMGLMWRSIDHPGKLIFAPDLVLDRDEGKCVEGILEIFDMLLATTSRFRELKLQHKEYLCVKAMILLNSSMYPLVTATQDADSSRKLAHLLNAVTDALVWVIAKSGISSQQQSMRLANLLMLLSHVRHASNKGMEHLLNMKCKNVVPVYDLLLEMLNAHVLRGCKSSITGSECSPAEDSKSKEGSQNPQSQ

[24] = target: FAD-linked sulfhydryl oxidase ALR (Homo sapiens, UniProt P55789); experiment: inhibitors of human ALR sulfhydryl oxidase, dose response, biochemical, H2O2 detection, luminescence, cherry-pick (AID 493248)
Chain of FAD-linked sulfhydryl oxidase ALR (P55789 whole entry): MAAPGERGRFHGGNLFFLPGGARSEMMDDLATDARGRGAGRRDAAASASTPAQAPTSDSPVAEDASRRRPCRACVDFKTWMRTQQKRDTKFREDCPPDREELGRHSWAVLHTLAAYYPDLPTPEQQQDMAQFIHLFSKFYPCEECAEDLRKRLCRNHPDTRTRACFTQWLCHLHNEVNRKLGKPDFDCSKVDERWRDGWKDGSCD

[25] = target: Protein-tyrosine kinase 2-beta (Homo sapiens, UniProt Q14289);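 note: potency of inhibitors of PYK2 kinase phosphorylation of poly-GT substrate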
Chain of Protein-tyrosine kinase 2-beta (Q14289 whole entry): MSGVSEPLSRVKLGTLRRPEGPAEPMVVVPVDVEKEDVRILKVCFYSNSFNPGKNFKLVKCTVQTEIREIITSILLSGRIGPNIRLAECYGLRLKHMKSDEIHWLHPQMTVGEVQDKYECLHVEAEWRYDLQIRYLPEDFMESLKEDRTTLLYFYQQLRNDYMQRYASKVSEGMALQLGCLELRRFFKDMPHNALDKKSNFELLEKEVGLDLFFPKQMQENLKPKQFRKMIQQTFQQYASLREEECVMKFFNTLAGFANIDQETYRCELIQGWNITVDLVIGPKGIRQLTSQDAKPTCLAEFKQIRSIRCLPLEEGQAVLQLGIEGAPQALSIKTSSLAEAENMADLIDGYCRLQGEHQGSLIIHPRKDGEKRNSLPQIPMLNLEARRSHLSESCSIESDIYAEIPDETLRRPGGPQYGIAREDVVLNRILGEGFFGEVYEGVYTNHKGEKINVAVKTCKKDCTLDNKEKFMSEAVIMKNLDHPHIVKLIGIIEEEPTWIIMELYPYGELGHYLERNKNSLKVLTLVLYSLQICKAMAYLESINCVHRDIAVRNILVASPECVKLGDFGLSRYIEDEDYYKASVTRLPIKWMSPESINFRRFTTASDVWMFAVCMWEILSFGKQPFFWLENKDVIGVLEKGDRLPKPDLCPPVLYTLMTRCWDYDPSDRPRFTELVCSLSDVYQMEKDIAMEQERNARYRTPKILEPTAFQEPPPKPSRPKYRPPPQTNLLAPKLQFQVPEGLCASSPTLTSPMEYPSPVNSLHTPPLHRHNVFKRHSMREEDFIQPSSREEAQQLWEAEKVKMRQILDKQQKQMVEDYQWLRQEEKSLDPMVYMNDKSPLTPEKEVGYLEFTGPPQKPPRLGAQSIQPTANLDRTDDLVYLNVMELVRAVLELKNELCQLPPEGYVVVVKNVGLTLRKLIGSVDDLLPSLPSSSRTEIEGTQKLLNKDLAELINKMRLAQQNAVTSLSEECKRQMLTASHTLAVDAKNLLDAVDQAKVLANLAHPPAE

[26] = target: Glutathione-S-transferase (Schistosoma japonicum, UniProt Q26513); experiment: biotin-GST/anti-GST TR-FRET signal inhibitors, dose response, artefact control for Vif-APOBEC3G degradation inhibitor project, biochemical (AID 1117362); type: functional
Chain of Glutathione-S-transferase (Q26513 whole entry): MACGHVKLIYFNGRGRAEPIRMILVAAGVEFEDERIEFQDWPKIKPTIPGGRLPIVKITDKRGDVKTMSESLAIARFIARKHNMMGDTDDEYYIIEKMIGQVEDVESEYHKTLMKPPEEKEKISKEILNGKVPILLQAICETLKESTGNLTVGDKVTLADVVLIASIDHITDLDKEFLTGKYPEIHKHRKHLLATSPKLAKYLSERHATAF

[27] = target: Nonstructural protein 1 (Influenza A virus, UniProt Q194T2); type: functional, Influenza A virus (A/California/07/2009(H1N1))
Chain of Nonstructural protein 1 (Q194T2 whole entry): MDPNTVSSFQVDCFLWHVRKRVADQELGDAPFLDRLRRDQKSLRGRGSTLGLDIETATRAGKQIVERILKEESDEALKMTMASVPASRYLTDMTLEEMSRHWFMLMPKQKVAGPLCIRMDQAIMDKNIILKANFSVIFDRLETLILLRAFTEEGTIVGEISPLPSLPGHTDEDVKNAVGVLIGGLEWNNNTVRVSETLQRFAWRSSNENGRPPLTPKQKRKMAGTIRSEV

[28] = target: T2, Rac GTPase-activating protein 1 (Homo sapiens, UniProt Q9H0H5); experiment: MgcRacGAP GTPase-activating activity inhibitors, confirmation, biochemical, ADP Hunter fluorescence, primary and confirmatory (AID 624330); type: functional
T2 sequence (Q9H0H5 whole entry): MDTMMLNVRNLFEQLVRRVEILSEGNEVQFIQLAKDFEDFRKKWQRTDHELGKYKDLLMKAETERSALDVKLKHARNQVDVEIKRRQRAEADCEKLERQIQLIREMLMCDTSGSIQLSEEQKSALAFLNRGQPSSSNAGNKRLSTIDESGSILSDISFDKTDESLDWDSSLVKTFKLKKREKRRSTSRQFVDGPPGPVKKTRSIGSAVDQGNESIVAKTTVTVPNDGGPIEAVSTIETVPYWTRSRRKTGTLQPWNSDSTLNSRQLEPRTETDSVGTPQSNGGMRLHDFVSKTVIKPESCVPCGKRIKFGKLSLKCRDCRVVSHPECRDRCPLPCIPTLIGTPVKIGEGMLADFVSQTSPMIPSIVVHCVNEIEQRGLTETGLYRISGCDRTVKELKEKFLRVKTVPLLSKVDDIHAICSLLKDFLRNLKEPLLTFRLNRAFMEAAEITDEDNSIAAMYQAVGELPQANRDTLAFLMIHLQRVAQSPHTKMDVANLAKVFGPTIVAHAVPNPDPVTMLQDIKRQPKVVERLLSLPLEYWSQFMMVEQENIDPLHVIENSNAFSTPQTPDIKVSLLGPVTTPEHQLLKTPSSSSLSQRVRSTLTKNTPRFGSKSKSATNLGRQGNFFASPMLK

[29] = P. falciparum Dd2 growth inhibitors, dose response, SYBR Green, dry powder samples (AID 1159566); type: functional, cell-based;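 note: potency for growth inhibition with lower SYBR green DNA signal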
[30] = P. falciparum 3D7-ScDHODH growth inhibitors, dose response, SYBR Green, dry powder samples (AID 1159570); type: functional, cell-based;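 note: parasite growth measured after 72 hours of compound exposure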
[31] = P. falciparum Dd2 growth inhibitors, dose response, SYBR Green, dry powder samples, set 9 (AID 1159568); type: functional, cell-based
[32] = P. falciparum ATP4 D1247Y mutant growth inhibitors, dose response, NITD609-resistant line, SYBR Green, dry powder (AID 1159571); type: functional, cell-based;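 note: parasites synchronized at ring stage by sorbitol before testing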
[33] = HepG2 cell cytotoxicity, dose response, cytotoxicity control, plate reader, dry powder samples (AID 1159569); type: functional, cell-based;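 note: inhibitor potency with signal falling toward the positive control level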

COc1ccc(C#Cc2ccc([C@@H]3[C@H](CO)N4CCCCN(C(=O)Nc5cccc(F)c5)C[C@@H]34)cc2)cc1
AC50 [1]: 10 µM (active) | AC50 [2]: 1.43 µM (active) | AC50 [3]: 10.5 µM (active) | AC50 [4]: 9.89 µM (active) | AC50 [5]: 16.3 µM (active) | AC50 [6]: 40.6 µM (active) | AC50 [7]: 15.3 µM (active) | AC50 [8]: 6.45 µM (active) | AC50 [9]: 18.1 µM (active)

COc1cccc(-c2cn(CC[C@@H]3CC[C@@H](NC(C)=O)[C@H](CO)O3)nn2)c1
AC50 [10]: > 52 µM (inactive)

CCCC#Cc1ccc([C@@H]2[C@@H](C#N)N(C(=O)C3CCCCC3)[C@H]2CO)cc1
AC50 [11]: 14.1 µM (active) | AC50 [12]: 18.3 µM (active) | AC50 [13]: 31 µM (active) | AC50 [4]: 6.02 µM (active) | AC50 [14]: 41.8 µM (active) | AC50 [15]: 34.5 µM (active) | AC50 [16]: 36 µM (active) | AC50 [9]: 51 µM (active)

COC(=O)c1cc(Br)cnc1N1CCC(NC2CCC(C)CC2)CC1 (stereo unspecified)
IC50 [17]: 8.6 µM (active) | IC50 [18]: 18 µM (inactive)

Cc1cc(C(=O)N/N=C/c2cc(Br)ccc2OC(=O)c2ccccc2)[nH]n1
AC50 [19]: 43.1 µM (active) | AC50 [20]: 1.91 µM (active) | AC50 [21]: 16.6 µM (active)

CN1CCN(c2ccc(N)cc2)CC1
AC50 [22]: 21.9 µM (active) | IC50 [23]: 7.13 µM (not active) | AC50 [24]: 3.83 µM (active) | IC50 [25]: 2.83 µM (active) | IC50 [26]: 18.4 µM (active) | IC50 [27]: 53.7 µM (active) | IC50 [28]: 32.3 µM (active)

COc1ccc(C#Cc2ccc3c(c2)O[C@@H](CN(C)C(=O)Nc2cccc(OC)c2)[C@@H](C)CN([C@@H](C)CO)S3(=O)=O)cc1
AC50 [29]: 0.405 µM (active) | AC50 [2]: 1.09 µM (active) | AC50 [30]: 0.603 µM (active) | AC50 [31]: 0.399 µM (active) | AC50 [32]: 0.556 µM (active) | AC50 [33]: > 100 µM (inactive)
